The data set in a line: gradient 5% acetonitrile 3 min, to 50% in 2 min, to 85% in 15 min, held 3 min, 100 µL/min. Particulars: column: Zorbax Extend-C18 2.1 x 50 mm; eluents: water / acetonitrile, 0.1% formic acid. The essentials: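 Retention time was recorded from adduct peaks, which were picked computationally and each inspected manually. Pure standards ran in mixtures of ~100 molecules on HPLC coupled to a quadrupole time-of-flight mass spectrometer, in positive and negative ionization mode, through a Zorbax Extend-C18 column (2.1 × 50 mm, 1.8 μm) at 100 μL/min. Eluents were water and acetonitrile, each with 0.1% formic acid.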
`CCC(C)NC(=O)Cn1cccc(-c2nc(-c3ccc(OC)c(OC)c3)no2)c1=O` (stereo not given) registered an RP-LC retention time of 714 s.

For `O=C(NCc1ccc(Cl)cc1)C1CCCN(c2cnc3nccnc3c2)C1` (stereo not given), the RP-LC retention time was determined as 731 s.

`O=C(CSc1nnc(NC(=O)c2ccc(Br)o2)s1)NCC1CCCO1` (stereo not given) displayed an RP-LC retention time of 648 s.

With `CCc1noc([C@@H]2CC(F)(F)CN2C(=O)CCc2c(C)noc2C)n1`, the RP-LC retention time was found to be 775 s.

On to `Cn1nc2n(c1=O)CCN(C(=O)c1cc(C3CC3)[nH]n1)CC2`, for which the RP-LC retention time is 575 s.

Molecule `Cc1oc(C2CCN(C(=O)Nc3ccc(F)cc3F)CC2)nc1C(=O)N1CCOCC1` returned an RP-LC retention time of 680 s.

As to `Cc1ccc(C)c(NC(=O)CN2C(=O)C3CCCCN3c3ccc(S(=O)(=O)N(C)C)cc32)c1` (stereo not given), the RP-LC retention time came to 955 s.

`CCc1ccc2c(c1)-c1ccccc1S(=O)(=O)N2CC(=O)NCCCn1ccnc1` returned an RP-LC retention time of 675 s.

As to `O=C(Nc1nccs1)C1CCN(C(=O)c2cccc(-n3cnnn3)c2)CC1`, the RP-LC retention time is 625 s.

In turn, `CCc1noc(NC(C)=O)c1-c1ccc(OC)c(S(=O)(=O)Nc2ccc3c(c2)OCCO3)c1` displayed an RP-LC retention time of 736 s.

The molecule `CCS(=O)(=O)N1CCC[C@H](n2c(=O)n(C)c3cccnc32)C1` displayed an RP-LC retention time of 698 s.

Regarding `CCCNC(=O)N1CC(c2nc(-c3ccc(F)cc3)no2)C2(CCOCC2)C1` (stereo not given), the RP-LC retention time was found to be 793 s.

Regarding `CSc1ccc(Cl)c(-c2nc(-c3ccc4c(c3)oc(=O)n4C)no2)c1`, the RP-LC retention time came to 1170 s.

`Cc1noc(-c2nc(-c3ccc(N(C)C)cc3)no2)n1` displayed an RP-LC retention time of 1030 s.

In turn, `Clc1ccc(Nc2c(-c3ccccc3Cl)nc3ccc(Cl)cn23)cc1` returned an RP-LC retention time of 946 s.

`Cc1cc(N2CCOCC2)nc(N2CCN(C(=O)C3CCCCC3)CC2)n1` yielded an RP-LC retention time of 625 s.

For the molecule `Fc1ccc(-c2noc(-c3nc(-c4ccncc4)no3)n2)cc1F`, the RP-LC retention time worked out at 1040 s.

The molecule `Cc1cc(C2CCCN2C(=O)CCc2ccccc2)no1` (stereo not given) came in with an RP-LC retention time of 760 s.

In turn, `O=C(NCCC1=CCCCC1)C1CCN(c2cncnc2N2CCOCC2)CC1` had an RP-LC retention time of 656 s.

As to `CCn1c(N2CCC(C(=O)NCCCOC)CC2)cc(=O)n(C)c1=O`, the RP-LC retention time is 610 s.

`Cc1ccc(F)cc1NC(=O)c1cnc(-c2ccc(F)cc2)nc1-c1ccncc1`: the RP-LC retention time is 1060 s.

The molecule `Cc1cnn(CC(=O)N2CCc3nn(C)c(=O)n3CC2)c1` returned an RP-LC retention time of 577 s.

Molecule `CCC1CCCCN1C(=O)Cc1c(C)nc2nc(-c3ccc(C(C)(C)C)cc3)nn2c1C` (stereo not given) had an RP-LC retention time of 1160 s.

Regarding `Cc1nc(-c2cccc(F)c2)sc1CCNC(=O)C(=O)Nc1ccccc1Cl`, the RP-LC retention time turned out to be 1160 s.

Regarding `COCC1CN(C(C)=O)CC12CCN(C(=O)CSC)CC2` (stereo not given), the RP-LC retention time turned out to be 602 s.

Consider `Cc1cc(F)ccc1N1C(=O)CN(S(C)(=O)=O)CC1(C)C(=O)NC1CCCCC1` (stereo not given), for which the RP-LC retention time was 822 s.

Molecule `CNC(=O)c1ccc(-c2nc3cc(NS(=O)(=O)c4cc(Cl)ccc4OC)ccc3n2C)cc1` displayed an RP-LC retention time of 671 s.

In turn, `CC1CCN(S(=O)(=O)c2nn(C)cc2C(=O)NCc2cc(F)cc(F)c2)CC1` came in with an RP-LC retention time of 969 s.

On to `CCC(=O)N1CC(=O)Nc2ccc(Br)cc2C1c1ccccc1` (stereo not given), for which the RP-LC retention time was determined as 749 s.

`O=C1CCCCC(CNC(=O)c2cnccn2)N1` (stereo not given) showed an RP-LC retention time of 577 s.

In turn, `O=C(CC1CCCN(c2cn[nH]c(=O)c2)C1)N1CCC2(CC1)OCCO2` (stereo not given) came in with an RP-LC retention time of 604 s.

With `COc1cccc(S(=O)(=O)Nc2ccc(C(=O)Nc3ccncc3)cc2)c1`, the RP-LC retention time turned out to be 578 s.

In the case of `Cc1ccc(C(=O)Nc2nccnc2C(=O)N2CCC3(CC2)OCCO3)cc1`, the RP-LC retention time turned out to be 724 s.

In turn, `CCCN1C(=O)c2c(C(=O)NCc3ccc(N(C)C)cc3)ncn2CC1(C)C(=O)NCCC(C)C` (stereo not given) had an RP-LC retention time of 649 s.

The molecule `CC(C(=O)Nc1ccc2c(c1)OCCO2)n1cnc2nc3c(cc2c1=O)CCCC3` (stereo not given) registered an RP-LC retention time of 712 s.

In turn, `Cc1ccc(C(=O)N2[C@H]3CC[C@@H]2c2cnc(-c4ccc(F)cc4)nc2C3)cn1` gave an RP-LC retention time of 735 s.

Turning to `Cc1ccccc1-n1ccn(Cc2nc(-c3ccc(Cl)c(F)c3)no2)c(=O)c1=O`, the RP-LC retention time is 679 s.

Molecule `CCN(CC)CCCNC(=O)C1CCCN(C(=O)c2nnc(C(=O)Nc3ccc(F)cc3)s2)C1` (stereo not given) gave an RP-LC retention time of 652 s.

`O=C(c1cc(F)ccc1F)N1CCC(OCC2CC2)C1` (stereo not given) displayed an RP-LC retention time of 772 s.

On to `O=C(C1CCCCC1)N1CCN(c2ccc(=O)n(-c3ccccc3)n2)CC1`, for which the RP-LC retention time was 790 s.

Molecule `CCc1ccc(CNC(=O)c2cn(C)nc2S(=O)(=O)N2CCSCC2)cc1` gave an RP-LC retention time of 961 s.

`CCOc1ccc(CCNC(=O)C2CCCN(c3ncnc4c3nc3n4CCCCC3)C2)cc1` (stereo not given) had an RP-LC retention time of 807 s.

`Cc1ccc2c(c1)sc1nncn12` returned an RP-LC retention time of 749 s.

For the molecule `COc1ccc(Nc2c(-c3ccc(O)c(OC)c3)nc3nc(C)cc(C)n23)cc1`, the RP-LC retention time was 617 s.

Molecule `CCNC(=O)N1CCC(CCOc2cccnc2)CC1` gave an RP-LC retention time of 579 s.

`CCn1nccc1C(=O)N1CC(Oc2cccc(-c3nc(C)no3)c2)C1` showed an RP-LC retention time of 811 s.

`Cc1cc(C)c(S(=O)(=O)N2CCC(C(=O)NCCc3csc(-c4ccccc4)n3)CC2)cc1C` yielded an RP-LC retention time of 1070 s.

`O=C(NC1CCCC1)c1ccc(CN2CCN(Cc3ccccc3)C(=O)C2=O)cc1` gave an RP-LC retention time of 734 s.

For the molecule `Cc1ccc(NC(=O)Nc2c(-c3ccc(F)cc3)nc3ccccn23)cc1C`, the RP-LC retention time was determined as 714 s.

For the molecule `Cc1ccc(C2=NC3(CCN(C(=O)c4ccc5c(c4)OCO5)CC3)ON2)cc1`, the RP-LC retention time stood at 939 s.

`CCc1cc(C(=O)Nc2cc(C)ccc2C)nc2ccnn12` registered an RP-LC retention time of 1140 s.

Molecule `O=C(NC1(c2nc(-c3cnccn3)no2)CCCCC1)c1ccco1` displayed an RP-LC retention time of 712 s.

The molecule `Cn1c(=O)c2nc(SCCC(=O)Nc3cc(F)cc(F)c3)n(C)c2n(C)c1=O` had an RP-LC retention time of 751 s.

With `CCOC(=O)c1cc([N+](=O)[O-])sc1NC(=O)CC`, the RP-LC retention time was 915 s.

`CC(C)N(C(=O)Cn1c(CN2CCCCC2)nc2ccccc21)c1ccccc1` had an RP-LC retention time of 738 s.

Molecule `CC(C)Cn1c(=O)c(N2CCN(C(=O)c3ccco3)CC2)nc2ccncc21` displayed an RP-LC retention time of 555 s.

Turning to `CC1(C(=O)NC2CCCC2)Cn2cnc(C(=O)NCc3ccc(F)cc3)c2C(=O)N1C1CC1` (stereo not given), the RP-LC retention time stood at 759 s.

Consider `O=C(NCCC1CCN(C(=O)Nc2ccc(F)cc2F)CC1)C1CC1`, for which the RP-LC retention time was 691 s.

In turn, `CCNC(=O)C1CCCN(c2nc3ncn(CC(=O)N4CCc5ccccc5C4)c(=O)c3s2)C1` (stereo not given) showed an RP-LC retention time of 690 s.

The molecule `Cc1ccc(CNC(=O)C2(C)CCCN(C(=O)Nc3ccccc3Br)C2)cc1` (stereo not given) registered an RP-LC retention time of 1020 s.

Values taken from the METLIN SMRT retention time set (Domingo-Almenara et al. 2019).
